Assay results published in patent US20230183193A1, “4-DIFLUOROMETHYL BENZOYL AMIDES WITH HERBICIDAL ACTION” (BAYER CROPSCIENCE AKTIENGESELLSCHAFT, priority 2017, published 2023).

What was measured:
Assay type in all cases: in vivo
ECHCG = assay: Post-emergence herbicidal action, ECHCG; details: 80 g/ha, Table C
Outline: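 Weed and crop plants grown in sandy loam in the greenhouse, treated at the one-leaf stage 2–3 weeks after sowing. Damage scored visually after about 3 weeks vs untreated controls (0% = control, 100% = dead).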

Setaria viridis [1] = assay: Pre-emergence herbicidal action, SETVI; details: dosage 320 g/ha, scored visually after 3 weeks vs untreated controls
Outline: (§1)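 Percent herbicidal activity rated by eye 3 weeks after pre-emergence soil-surface application, compared with untreated pots. Seeds sat under sandy loam; sprays carried 0.2% wetting agent.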

Stellaria media [2] = assay: Pre-emergence herbicidal action, STEME; details: dosage 320 g/ha, scored visually after 3 weeks vs untreated controls
Outline: as §1

Amaranthus retroflexus [3] = assay: Post-emergence herbicidal action, AMARE; details: 80 g/ha, Table D
Outline: (§2)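 Greenhouse-grown weeds in sandy loam, treated at the one-leaf stage 2 to 3 weeks after sowing with WP or EC formulations sprayed as aqueous suspension/emulsion at 600 to […] water plus 0.2% wetting agent. Visual scoring after about 3 weeks versus untreated controls, 0% (like control) to 100% (plants dead).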

Alopecurus myosuroides [4] = assay: Post-emergence herbicidal action, ALOMY; details: 80 g/ha, Table C
Experimental: (§3) Seeds of monocotyledonous and dicotyledonous weed and crop plants are laid out in sandy loam soil in wood-fiber pots, covered with soil and cultivated in a greenhouse under good growth conditions. 2 to 3 weeks after sowing, the test plants are treated at the one-leaf stage. The compounds of the invention, formulated in the form of wettable powders (WP) or as emulsion concentrates (EC), are then sprayed onto the green parts of the plants in the form of an aqueous suspension or emulsion at a water application rate equating to […], with addition of 0.2% wetting agent. After the test plants have been left to stand in the greenhouse under optimal growth conditions for about 3 weeks, the action of the preparations is assessed visually in comparison to untreated controls (herbicidal action in percent (%): 100% activity=the plants have died, 0% activity=like control plants). […] At the same time, inventive compounds leave Gramineae crops such as barley, wheat, rye, millet/sorghum, corn or rice virtually undamaged when applied post-emergence, even at high active compound dosages. In addition, some substances are also harmless to dicotyledonous crops such as soya, cotton, oilseed rape, sugar beet or potatoes. Some of the compounds according to the invention have high selectivity and are therefore suitable for controlling unwanted vegetation in agricultural crops by the post-emergence method. The data of Tables C and D below illustrate, in an exemplary manner, the […] herbicidal action of the compounds according to the invention, the herbicidal activity being stated in percent.
(§4) For comparison, the herbicidal activity of numerous compounds according to the invention was tested with the structurally closest compounds known from the documents WO 2011/035874, WO 2012/028579 and WO 2012/126932, by the pre- and post-emergence method.

Amaranthus retroflexus [5] = assay: Pre-emergence herbicidal action, AMARE; details: dosage 320 g/ha, scored visually after 3 weeks vs untreated controls
Outline: as §1

Viola tricolor [6] = assay: Post-emergence herbicidal action, VIOTR; details: 80 g/ha, Table D
Outline: as §2

Setaria viridis [7] = assay: Post-emergence herbicidal action, SETVI; details: 80 g/ha, Table C
Outline: as §2

Stellaria media [8] = assay: Post-emergence herbicidal action, STEME; details: 80 g/ha, Table D
Outline: as §2

Abutilon theophrasti [9] = assay: Post-emergence herbicidal action, ABUTH; details: 80 g/ha, Table D
Outline: as §2

Avena fatua [10] = assay: Post-emergence herbicidal action, AVEFA; details: 80 g/ha, Table C
Experimental: as §3, §4

Avena fatua [11] = assay: Pre-emergence herbicidal action, AVEFA; details: dosage 320 g/ha, scored visually after 3 weeks vs untreated controls
Outline: as §1

Abutilon theophrasti [12] = assay: Pre-emergence herbicidal action, ABUTH; details: dosage 320 g/ha, scored visually after 3 weeks vs untreated controls
Outline: as §1

Alopecurus myosuroides [13] = assay: Pre-emergence herbicidal action, ALOMY; details: dosage 320 g/ha, scored visually after 3 weeks vs untreated controls
Excerpt: 1. Pre-Emergence Herbicidal Action Against Harmful Plants Seeds of monocotyledonous and dicotyledonous weed plants and crop plants are laid out in sandy loam soil in wood-fiber pots and covered with soil. The compounds of the invention, formulated in the form of wettable powders (WP) or as emulsion concentrates (EC), are then applied to the surface of the covering soil in the form of an aqueous suspension or emulsion at a water application rate equating to […], with addition of 0.2% wetting agent. After the treatment, the pots are placed in a greenhouse and kept under good growth conditions for the trial plants. The damage to the test plants is scored visually after a test period of 3 weeks by comparison with untreated controls (herbicidal activity in percent (%): 100% activity=the plants have died, 0% activity=like control plants).
as §4

Cyperus serotinus = assay: Pre-emergence herbicidal action, CYPES; details: dosage 320 g/ha, scored visually after 3 weeks vs untreated controls
Outline: as §1

Viola tricolor [14] = assay: Pre-emergence herbicidal action, VIOTR; details: dosage 320 g/ha, scored visually after 3 weeks vs untreated controls
Outline: as §1

Matricaria inodora = assay: Pre-emergence herbicidal action, MATIN; details: dosage 320 g/ha, scored visually after 3 weeks vs untreated controls
Outline: as §1

Pharbitis purpureum = assay: Post-emergence herbicidal action, PHBPU; details: 80 g/ha, Table D
Outline: as §2

Compound | Herbicidal activity ECHCG (ECHCG) [%] | herbicidal activity SETVI (Setaria viridis [1]) [%] | Herbicidal activity STEME (Stellaria media [2]) [%] | herbicidal activity AMARE (Amaranthus retroflexus [3]) [%] | herbicidal activity ALOMY (Alopecurus myosuroides [4]) [%] | herbicidal activity AMARE (Amaranthus retroflexus [5]) [%] | herbicidal activity VIOTR (Viola tricolor [6]) [%] | herbicidal activity SETVI (Setaria viridis [7]) [%] | Herbicidal activity STEME (Stellaria media [8]) [%] | herbicidal activity ABUTH (Abutilon theophrasti [9]) [%] | herbicidal activity AVEFA (Avena fatua [10]) [%] | herbicidal activity AVEFA (Avena fatua [11]) [%] | herbicidal activity ABUTH (Abutilon theophrasti [12]) [%] | herbicidal activity ALOMY (Alopecurus myosuroides [13]) [%] | herbicidal activity CYPES (Cyperus serotinus) [%] | herbicidal activity VIOTR (Viola tricolor [14]) [%] | herbicidal activity MATIN (Matricaria inodora) [%] | Herbicidal activity PHBPU (Pharbitis purpureum) [%]
CCSc1c(C(F)F)ccc(C(=O)Nc2nnc(C)o2)c1Cl [Example 7-50] | 100 | 100 | 100 | 90 | 90 | 90 | 100 | 100 | 90 | 100 | 90 | 100 | 100 | 100 | 90 | 100 | 90 | –
CCn1nnnc1NC(=O)c1ccc(C(F)F)c([S+](C)[O-])c1C (stereo not shown) [Example 2-2] | 90 | 100 | – | 80 | 90 | 100 | 100 | 100 | 100 | 90 | 90 | 100 | 100 | 100 | 90 | 100 | 100 | 90
CCSc1c(C(F)F)ccc(C(=O)Nc2nnnn2C)c1CC [Example 1-16] | 90 | 100 | 100 | 100 | 90 | 100 | 100 | 90 | 100 | 100 | 90 | 100 | 100 | 100 | 100 | 100 | 100 | –
CCCn1nnnc1NC(=O)c1ccc(C(F)F)c(SC)c1C [Example 3-1] | 100 | 100 | 100 | 100 | 90 | 100 | 100 | 100 | 100 | 100 | 100 | 100 | 100 | 100 | – | 100 | 100 | 90
CCCn1nnnc1NC(=O)c1ccc(C(F)F)c(S(C)(=O)=O)c1C [Example 3-3] | 90 | 100 | – | 80 | 90 | 100 | 100 | 90 | 90 | 90 | 90 | 100 | 100 | 90 | 90 | 100 | 100 | 90
